According to US8431523B2, “Oligomeric biosurfactants in dermatocosmetic compositions” (priority 2006, dated 2013):
Non-standard residues stand in square brackets, D forms with d. Residues, ends and D or L forms follow the SMILES beside them. *: point of attachment. Palmitoyl = CCCCCCCCCCCCCCCC(=O)*; Myristoyl = CCCCCCCCCCCCCC(=O)*

These compounds were tested on metabolic soluble proteins (assay: CBQCA Protein Quantitation Assay (metabolic soluble protein)).
Format: cell-based
Protocol: A first aspect of the present invention is directed to OABs having an ability to increase metabolic soluble proteins by at least about 20%. For purposes of the present invention, metabolic soluble protein is measured using the CBQCA Protein Quantitation Assay from Molecular Probes, Inc. (Eugene, Oreg.). This assay is based on aquinoline-2-carboxaldehyde derivative, which specifically reacts with primary amines to form conjugates capable of electrophoretic or chromatographic analysis. More specifically, in the presence of the cyanide anion, the quinoline-2-carboxaldehyde derivative reacts with primary amines, including those on proteins, and produces a highly-fluorescent emission at 550 nm.

Compound	increases metabolic soluble protein (qualitative)	increase metabolic soluble proteins
CCCCCCCCCCCCCC(=O)N[C@@H](CCCNC(=N)N)C(N)=O [P391, Myr-R-amide]	increases metabolic soluble protein	
Myr-III-amide [P420]		at least 20%
Myr-RH-amide [P393]	increases metabolic soluble protein	
Pal-KK-amide [P316]	increases metabolic soluble protein	
Pal-RR-amide [P318]	increases metabolic soluble protein	

What follows are compounds tested on E. coli, P. aeruginosa, P. cepacia, S. aureus, including MRSA, S. epidermidis, and C. albicans (assay: not given).
Format: cell-based
From the text: By “antimicrobial” activity is meant the ability to inhibit the growth of at least one microbial organism selected from the group consisting E. coli, P. aeruginosa, S. aureus and C. albicans, as confirmed by optical density measurement (“OD”).
By “inhibition of growth” is meant reduction or absence of an increase greater than 5% in OD, a dimensionless measure of turbidity that is proportional to the amount of microbial cells present in a sample. For illustrative purposes, a OAB according to the present invention is added to a culture plate on which E. coli is present at a final concentration of about 5×10^3 cfu/ml. The plate is then incubated at about 37° C. for about 24 hours at which time the E. coli is resuspended by shaking, and OD is measured at about 600 nm. Thus, a reduction or absence of an increase greater than 5% in OD confirms the antimicrobial nature of the OAB with respect to E. coli.
Minimum inhibitory concentration (“MIC”) is a method well-known to those of skill in the art for expressing antimicrobial activity. A compound to be tested is serially diluted into growth medium, inoculated with culture and then incubated. The MIC is the lowest dilution of compound that inhibits or prevents growth of the target microorganism.
A further aspect of the present invention is directed to oligomeric acylated biosurfactants having a CMC of less than about 100 ppm in an aqueous environment of MEM Solution that reduces the surface tension of the MEM Solution to less than about […] where the OAB consists essentially of two to nine amino acid residues, at least one of which is charged, and has a MIC of less than 100 ppm for at least two of the following microorganisms: E. coli, P. aeruginosa, P. cepacia, S. aureus, including MRSA, S. epidermidis, and C. albicans. OABs meeting this criterion are selected from the group consisting of: Myr-GR-amide (P300); Myr-KK-amide (P315); Pal-HR-amide (P320); Myr-KK-acid (P347); SEQ ID NO 79 (P367); Myr-GHR-amide (P245); Pal-GHR-amide (P250); Myr-GRK-amide (P303); Pal-G-H—[R]^D-amide (P366); SEQ ID NO 84 (368); SEQ ID NO 58 (P370); SEQ ID NO 59 (P360); SEQ ID NO 60 (P373); SEQ ID NO 61 (P376); SEQ ID NO 62 (P369); SEQ ID NO 63 (P379); SEQ ID NO 64 (P381); SEQ ID NO 65 (P416); SEQ ID NO 66 (P383); and SEQ ID NO 67 (P289).

Compound	MIC for at least two of the listed microorganisms
CCCCCCCCCCCCCC(=O)NCC(=O)N[C@@H](CCCNC(=N)N)C(=O)N[C@@H](CCCCN)C(N)=O [P303, Myr-GRK-amide] (Myristoyl-Gly-Arg-Lys-NH2)	less than 100 ppm
CCCCCCCCCCCCCC(=O)N[C@@H](CCCCN)C(=O)N[C@@H](CCCCN)C(N)=O [P315, Myr-KK-amide]	less than 100 ppm
CCCCCCCCCCCCCCCC(=O)N[C@@H](Cc1c[nH]cn1)C(=O)N[C@@H](CCCNC(=N)N)C(N)=O [P320, Pal-HR-amide] (Palmitoyl-His-Arg-NH2)	less than 100 ppm
CCCCCCCCCCCCCC(=O)N[C@@H](CCCCN)C(=O)N[C@@H](CCCCN)C(=O)O [P347, Myr-KK-acid]	less than 100 ppm
CCCCCCCCCCCCCC(=O)N[C@H](CCCCN)C(=O)N[C@@H](CCCCN)C(=O)N[C@H](C)C(=O)N[C@@H](CC(C)C)C(=O)N[C@H](CCCCN)C(N)=O [P360, Myr-[K]^D-K-[A]^D-L-[K]^D-amide] (Myristoyl-[dK]K[dA]L[dK]-NH2)	less than 100 ppm
CCCCCCCCCCCCCCCC(=O)NCC(=O)N[C@@H](Cc1c[nH]cn1)C(=O)N[C@H](CCCNC(=N)N)C(N)=O [P366, Pal-G-H-[R]^D-amide] (Palmitoyl-Gly-His-[dR]-NH2)	less than 100 ppm
CCCCCCCCCCCCCCCC(=O)N[C@@H](CCCCN)C(=O)N[C@H](CCCCN)C(N)=O [P367, Pal-K-[K]^D-amide]	less than 100 ppm
CCCCCCCCCCCCCC(=O)N[C@@H](CCCCN)C(=O)N[C@@H](CCCCN)C(=O)N[C@@H](C)C(=O)N[C@@H](CC(C)C)C(=O)N[C@@H](CCCCN)C(=O)N[C@@H](CCCCN)C(N)=O [P369, Myr-KKALKK-amide] (Myristoyl-KKALKK-NH2)	less than 100 ppm
CCCCCCCCCCCCCCCC(=O)N[C@@H](CC(C)C)C(=O)N[C@@H](C)C(=O)N[C@@H](CCCCN)C(=O)N[C@@H](CCCCN)C(N)=O [P370, Pal-LAKK-amide] (Palmitoyl-LAKK-NH2)	less than 100 ppm
CCCCCCCCCCCCCC(=O)N[C@@H](CCCCN)C(=O)N[C@@H](CCCCN)C(=O)N[C@@H](CO)C(=O)N[C@@H](CC(C)C)C(=O)N[C@@H](CCCCN)C(N)=O [P373, Myr-KKSLK-amide] (Myristoyl-KKSLK-NH2)	less than 100 ppm
CCCCCCCCCCCCCC(=O)N[C@@H](CC(C)C)C(=O)N[C@@H](C)C(=O)N[C@H](C(=O)N[C@@H](CCCCN)C(=O)N[C@@H](CCCCN)C(N)=O)[C@@H](C)CC [P376, Myr-LAIKK-amide] (Myristoyl-LAIKK-NH2)	less than 100 ppm
CCCCCCCCCCCCCC(=O)N[C@@H](CCCCN)C(=O)N[C@@H](CCCCN)C(=O)N[C@@H](C)C(=O)N[C@@H](CC(C)C)C(=O)N[C@@H](CCCCN)C(=O)N[C@@H](C)C(N)=O [P379, Myr-KKALKA-amide] (Myristoyl-KKALKA-NH2)	less than 100 ppm
CCCCCCCCCCCCCC(=O)N[C@@H](CC(C)C)C(=O)N[C@@H](CCCCN)C(=O)N[C@@H](CCCCN)C(=O)N[C@@H](C)C(=O)N[C@@H](CC(C)C)C(=O)N[C@@H](CCCCN)C(N)=O [P381, Myr-LKKALK-amide] (Myristoyl-LKKALK-NH2)	less than 100 ppm
CCCCCCCCCCCCCC(=O)N[C@@H](CO)C(=O)N[C@@H](CC(=O)O)C(=O)NCC(=O)N[C@@H](CCCNC(=N)N)C(N)=O [P383, Myr-SDGR-amide] (Myristoyl-SDGR-NH2)	less than 100 ppm
CCCCCCCCCCCCCC(=O)N[C@H](C(=O)N[C@H](C(=O)N[C@H](C(=O)N[C@@H](CCCCN)C(=O)N[C@@H](CCCCN)C(=O)N[C@@H](CCCCN)C(N)=O)[C@@H](C)CC)[C@@H](C)CC)[C@@H](C)CC [P416, Myr-IIIKKK-amide] (Myristoyl-IIIKKK-NH2)	less than 100 ppm
